Reference: article PMC9863607, “Combined Use of Antimicrobial Peptides with Antiseptics against Multidrug-Resistant Bacteria: Pros and Cons” (Pharmaceutics, 2023)
Where two headings read alike, the source gives them in different places. Peptide text beside a SMILES is read from it.

Tests used:
[1] = system: K. pneumoniae ESBL 344/17; test: microbe, parasite or virus in culture; assay type: cell-based, Klebsiella pneumoniae
Method: In this regard the test plates were preincubated for 1 h at 37 °C with 0.1% bovine serum albumin (BSA) in distilled water before use. Bacteria were grown overnight at 37 °C with shaking in 2.1% Müller–Hinton broth (MHB), and then a small aliquot was transferred into the fresh portion of the same medium for another 2–3 h on the day of the experiment to provide us with the log phase bacterial suspension. Concentration of bacterial cells in suspension was evaluated based on absorbance at 620 nm and diluted down to 1 × 10^6 CFU/mL with MHB. Equal volumes of the prepared bacterial suspension in MHB and two-fold serial dilutions of the antimicrobials in 10 mM sodium phosphate (Na-P) buffer (pH 7.4) with 0.1% BSA were mixed and incubated overnight at 37 °C. The lowest concentration where no bacterial growth was observed the next day under visual examination was considered the minimal inhibitory concentration. The test was repeated at least three times, and the final MIC value was established as a median result. Each experiment was conducted in triplicates. Terasaki microplates (10 µL end volume, V-shaped bottom; Sarstedt, Nümbrecht, Germany) were used.

E. coli ML-35p = test: Bacterial membrane permeability assay (nitrocefin / ONPG); assay type: cell-based, Escherichia coli
Description: Monitoring the ability of the test substances or their combinations to affect bacterial membranes and enhance their permeability over time was organized using a method first proposed by Prof. Lehrer’s scientific group. The idea is based on utilizing special markers that cannot spontaneously penetrate bacterial membranes until those are damaged but would be readily processed by the bacteria’s own enzymes into products of different color once they enter. Then, the product can be spectrophotometrically detected, and the dynamics of its accumulation can be associated with the scale and swiftness of the inflicted membrane impairment. The specific bacterial strain E. coli ML-35p was designed for the procedure. It is a descendant of E. coli ML-35, first identified during lac operon studies, deficient in lactopermease but constitutively expressing cytoplasmic β-galactosidase, that was modified with a plasmid vector to additionally provide it with a periplasmic β-lactamase. These modifications create the basis for the mentioned membrane damage detection approach, as there are two specifically placed enzymes, but their lactose/galactose-based substrates cannot enter bacterial cells on their own in the absence of lactopermeases.
Nitrocefin (Calbiochem-Novabiochem, San Diego, CA, USA), which can be converted by β-lactamase into a pink-colored product detectable at 486 nm once it reaches the periplasmic space, was used as a marker of the outer membrane permeability, and ONPG (o-nitrophenyl-β-D-galactoside, Sigma, St. Louis, MO, USA), producing yellow-colored o-nitrophenyl detectable at 420 nm once hydrolyzed by β-galactosidase in the bacterial cytoplasm, was likewise used as an indicator of inner membrane damage.
An overnight culture of E. coli ML-35p grown at 37 °C in 3% Trypticase soy broth (TSB) was washed of the medium twice with 10 mM Na-P buffer (pH 7.4) via a 10 min long centrifugation at 600 g and 4 °C and diluted down in the same buffer to 1 × 10^8 CFU/mL stock concentration based on the optical density (OD) of the suspension at 620 nm (the formula being concentration [CFU/mL] = OD620 × 2.5 × 10^8). The stock was preferably used immediately or kept at 4ᵒC for no more than 1 h. Experiments were carried out in 96-well clear flat-bottom plates. The 100 µL samples containing antimicrobials or their combinations in desired concentrations, 10 mM Na-P buffer (pH 7.4), 100 mM NaCl, 20 μM of nitrocefin or 2.5 mM of ONPG, and bacteria in a final concentration of 2.5 × 10^7 CFU/mL were made in duplicates. Controls included no antimicrobial substances. Bacterial suspension was the last component and was added just before the start of the measurement. OD values at the wavelengths of 420 and 486 nm were collected once per minute for 1–2 h using SpectraMax 250 Microplate Spectrophotometer (Molecular Devices, San Jose, CA, USA); samples were maintained at 37 °C with 5 s of shaking before each read.

human erythrocytes = assay type: cell-based
Method: Hemolytic properties of the test substances and their combinations were assessed as previously described. Whole human blood was collected from healthy donors by venipuncture into sterile EDTA-covered vacuum tubes, diluted 10 times with ice-cold phosphate-buffered saline (PBS) containing 4mM EDTA for the start, and then washed out twice with still ice-cold but anticoagulant-free PBS by a 10 min long centrifugation at 300× g and 4 °C to remove plasma and anticoagulant altogether. […] Samples were incubated for 30 min at 37 °C and then supplied with 90 µL of ice-cold PBS to stop further hemolysis. Remaining RBCs or their debris were precipitated by 4 min of centrifugation at 10,000× g and room temperature, and 100 µL of the supernatants was transferred to a 96-well clear flat-bottom test plate to spectrophotometrically detect hemoglobin released from the damaged RBCs. OD was measured at 540 nm—one of the hemoglobin absorbance maxima. The samples with 6 µL of pure PBS (with no potentially hemolytic agents) were used as a 0% lysis reference point. Experimental samples were compared with 0% lysis control by the Mann–Whitney U-test (p < 0.05) to identify statistically significant hemolytic action. In case the exact level of effect was of interest, the samples with 6 µL of 5% v/v Triton X-100 in PBS were also prepared to additionally obtain a 100% lysis reference point and calculate the percentage of hemolysis in test samples as hemolysis (%) = (ODsample − OD0% lysis)/(OD100% lysis − OD0% lysis) × 100%. At least three independent repeats were performed.
The absence “–” or presence “+” of a statistically significant difference compared with the intact control once exposed to the action of combinations of AMPs and antiseptics in concentrations equal to ½ or ¼ of their individual MECH was evaluated in a series of three independent experiments.

[2] = antiseptics and surfactants, MHB, overnight 37 °C, median of 3–4 independent experiments, prontosan as polyhexanide
[3] = antiseptics and surfactants, 2.5% v/v RBC in PBS, 30 min, 37 °C, median of 3 independent experiments, prontosan as polyhexanide
[4] = intact bacteria and bacteria lysed by 4×MIC of PG-1

Compound | MIC ([1]; ESBL 344/17, 1 h) | MIC [1, 2] | MECH of hemolysis of human erythrocytes (human erythrocytes; [3]) | Interference with nitrocefin degradation by bacterial β-lactamase (E. coli ML-35p; [4]) | MECH of hemolysis of human erythrocytes (human erythrocytes) | also measured
CC[C@H](C)[C@H](NC(=O)[C@H](CCCNC(=N)N)NC(=O)[C@@H](NC(=O)[C@@H]1CCCN1C(=O)[C@@H]1CCCN1C(=O)[C@H](CCCNC(=N)N)NC(=O)[C@H](CCCNC(=N)N)NC(=O)[C@H](Cc1ccccc1)NC(=O)[C@@H]1CCCN1C(=O)[C@H](CC(C)C)NC(=O)[C@H](CCCNC(=N)N)NC(=O)[C@H](Cc1ccccc1)NC(=O)[C@@H](N)CCCNC(=N)N)[C@@H](C)CC)C(=O)N[C@@H](Cc1c[nH]cn1)C(=O)N1CCC[C@H]1C(=O)N1CCC[C@H]1C(=O)N1CCC[C@H]1C(=O)N[C@@H](Cc1ccccc1)C(=O)N[C@@H](Cc1ccc(O)cc1)C(=O)N1CCC[C@H]1C(=O)N1CCC[C@H]1C(=O)N[C@@H](Cc1ccccc1)C(=O)N[C@@H](CCCNC(=N)N)C(=O)N[C@@H](CCCNC(=N)N)C(=O)N[C@@H](Cc1ccccc1)C(=O)N[C@@H](CC(C)C)C(=O)O [ChBac3.4] (H-RFRLPFRRPPIRIHPPPFYPPFRRFL-OH; N-terminus assumed) | 3.1 µM |  |  |  |  | 
[O-][n+]1c(CO)c(CO)[n+]([O-])c2ccccc21 [Dioxydin] |  | 0.0156 mg/mL | 500 µg/mL |  |  | Effect on the membranolytic action of AMPs (E. coli ML-35p; ¼ MIC AMP + ¼ MIC antiseptic, poviargolum: outer membrane only, data not shown): did not cause significant changes in the dynamics of the membranolytic action of AMPs; Effect on permeability of bacterial membranes for chromogenic markers, substance alone (E. coli ML-35p; ¼ and ½ MIC, nitrocefin (outer) and ONPG (inner membrane), 10 mM Na-P buffer pH 7.4, 100 mM NaCl, 37 °C): did not significantly increase the permeability of bacterial membranes; MECH (human erythrocytes): higher than 0.5 mg/mL
CC(O)(P(=O)(O)O)P(=O)(O)O [Etidronic acid] |  |  |  | prevents said enzyme from splitting nitrocefin | 5000 µg/mL | Interference with ONPG processing by cytoplasmic β-galactosidase (E. coli ML-35p; [4]): fully blocked the processing of ONPG; MIC ([1]; Klebsiella pneumoniae, ESBL344/17, antiseptics and surfactants, MHB, overnight 37 °C, median of 3–4 independent experiments, prontosan as polyhexanide, read-out: MIC): 50 mg/mL
CC(C)C[C@H](NC(=O)[C@H](CCCNC(=N)N)NC(=O)CNC(=O)CNC(=O)[C@@H](N)CCCNC(=N)N)C(=O)N[C@H]1CSSC[C@@H](C(=O)N[C@H](C(=O)NCC(=O)N[C@@H](CCCNC(=N)N)C(N)=O)C(C)C)NC(=O)[C@H](C(C)C)NC(=O)[C@@H]2CSSC[C@H](NC(=O)[C@H](Cc3ccc(O)cc3)NC1=O)C(=O)N[C@@H](CCCNC(=N)N)C(=O)N[C@@H](CCCNC(=N)N)C(=O)N[C@@H](CCCNC(=N)N)C(=O)N[C@@H](Cc1ccccc1)C(=O)N2 [PG-1, protegrin 1] | 3.1 µM |  |  |  | 0.5 µM | 
Cocamidopropyl betaine |  | 0.1562 mg/mL | 1 µg/mL | block the degradation of nitrocephin by β-lactamase |  | 
